This note sets out measurements from patent US20220373534A1, “HUMAN NASOPHARYNGEAL CARCINOMA CELLS DERIVED FROM PATIENT DERIVED XENOGRAFT AND USES THEREOF” (Chang Gung Memorial Hospital, Linkou, priority 2021, published 2022).

In the assay the test system is NPC PDX-B13. The experiment in a line: In vivo study of tumor volume in the NPC PDX-B13 mouse model. Also on record: species or system NOD/SCID mice. The conditions noted are these: week 6, read from FIG. 4.

Protocol: NPC cell lines, C666-1 (EBV positive) and HK-1 (EBV negative), were maintained in RPMI containing 10% fetal bovine serum (FBS). A cell growth assay and animal studies were conducted as described by CL Hsu et al (“Application of a Patient-Derived Xenograft Model in Cytolytic Viral Activation Therapy for Nasopharyngeal Carcinoma.” Oncotarget 6, no. 31 (2015): 31323-34).
PDX models were generated as follows: NPC tumor samples were obtained from patients with local recurrence or metastasis undergoing biopsy or surgical resection. Each sample was immediately cut into smaller pieces of approximately 3-5 mm in diameter and subcutaneously implanted into the flank regions of anesthetized NOD/SCID mice. The xenograft was excised and reimplanted in small pieces into the next passage after the tumor reached 1-2 cm in diameter.

In the case of `CC(=O)c1c(C)c2cnc(Nc3ccc(N4CCNCC4)cn3)nc2n(C2CCCC2)c1=O` [PAL, Palbociclib], the “inhibit PDX-B13 tumor growth (reduce tumor volume)” value is on record as about 70%.
Turning to `CN(C)C/C=C/C(=O)Nc1cc2c(Nc3ccc(F)c(Cl)c3)ncnc2cc1O[C@H]1CCOC1` [AFA, Afatinib], the “inhibit PDX-B13 tumor growth (reduce tumor volume)” value is recorded as “approximately 30%”.
